Here are results for eleven compounds from paper PMC6268093, “Total Synthesis and Antidepressant Activities of Laetispicine and Its Derivatives” (Molecules, 2012).

Data set [1] addresses T1, hERG potassium channel (Homo sapiens, UniProt Q12809). Kind of data set: hERG inhibition, automated QPatch patch clamp in CHO cells stably expressing hERG. Background: hERG is a cardiac potassium channel; its block is linked to QT prolongation.
Experimental: (§1) A CHO cell line stably expressing hERG potassium channels were voltage clamped using automated QPatch electrophysiology system. Test items were dissolved in DMSO and diluted with external recording buffer. […] Each cell acted as its own control. […] The extent of inhibition of channel was expressed as a percentage of the control response (minus the test compound).
In data set [2] the test system is forced swimming mice (immobility). As to the kind of experiment: Forced swimming test in mice. To be noted: for inhibition in vivo at 10 mg/kg: Mus musculus, po, mice, 10 mg/kg i.g., 100 × [(control − experiment)/control], read-out: Reduction (%) of immobility time vs control; for Antidepressant activity compared with laetispicine (in words): forced swimming test in mice, 10 mg/Kg. In kind it is in vivo, KM mice. As to the method:
KM mice (18–22 g) of either sex were obtained from Laboratory Animal Center of the College of Medicine, Fudan University. Animals were housed in standard environmental conditions with free access to food and water. The animals were used only once throughout the study. They were allowed to acclimatize to the laboratory seven days before pharmacological tests. The experiment procedures were conducted in compliance with the National Institutes of Health Guide for Care and Use of the laboratory Animals.
Tween 80 was purchased from Sinopharm Chemical Reagent Co., Ltd (Shanghai, China), fluoxetine from Shanghai Zhongxi Pharmaceutical Co., Ltd. All other reagents were of analytical grade. All drugs were dissolved in saline with 2% Tween 80. Drugs (10 mg/kg/2 mL) were administered by intragastric (i.g.) route 60 min before the forced swimming tests. The control group received only saline with 2% Tween 80 simultaneously.
The forced swimming test adopted here is a modification of the method described by Porsoltetal. Briefly, mice were individually forced to swim for 15 min in glass cylinders (height: 20 cm, diameter: 14 cm), containing 10 cm of water at 25 °C, which is a pre-test, and then mice were removed and dried before being returned to cages. Twenty-four hours later, mice were placed in the cylinders again for a 6-min test in the same system depicted above. The duration of immobility was recorded during the last 4 min of the 6-min testing period.
Data obtained were expressed as mean ± SEM and analyzed by analysis of variance (ANOVA) followed by Bonferroni’s test. p-values less than 0.05 (p < 0.05) were used as the significant level. The percent of inhibition was determined using the following formula: Inhibition (%) = 100 × [(control − experiment) / control].

In data set [3] the target is T1, hERG potassium channel. As to the kind of experiment: in vitro.
Experimental: as §1

T1 sequence (Q12809 whole entry): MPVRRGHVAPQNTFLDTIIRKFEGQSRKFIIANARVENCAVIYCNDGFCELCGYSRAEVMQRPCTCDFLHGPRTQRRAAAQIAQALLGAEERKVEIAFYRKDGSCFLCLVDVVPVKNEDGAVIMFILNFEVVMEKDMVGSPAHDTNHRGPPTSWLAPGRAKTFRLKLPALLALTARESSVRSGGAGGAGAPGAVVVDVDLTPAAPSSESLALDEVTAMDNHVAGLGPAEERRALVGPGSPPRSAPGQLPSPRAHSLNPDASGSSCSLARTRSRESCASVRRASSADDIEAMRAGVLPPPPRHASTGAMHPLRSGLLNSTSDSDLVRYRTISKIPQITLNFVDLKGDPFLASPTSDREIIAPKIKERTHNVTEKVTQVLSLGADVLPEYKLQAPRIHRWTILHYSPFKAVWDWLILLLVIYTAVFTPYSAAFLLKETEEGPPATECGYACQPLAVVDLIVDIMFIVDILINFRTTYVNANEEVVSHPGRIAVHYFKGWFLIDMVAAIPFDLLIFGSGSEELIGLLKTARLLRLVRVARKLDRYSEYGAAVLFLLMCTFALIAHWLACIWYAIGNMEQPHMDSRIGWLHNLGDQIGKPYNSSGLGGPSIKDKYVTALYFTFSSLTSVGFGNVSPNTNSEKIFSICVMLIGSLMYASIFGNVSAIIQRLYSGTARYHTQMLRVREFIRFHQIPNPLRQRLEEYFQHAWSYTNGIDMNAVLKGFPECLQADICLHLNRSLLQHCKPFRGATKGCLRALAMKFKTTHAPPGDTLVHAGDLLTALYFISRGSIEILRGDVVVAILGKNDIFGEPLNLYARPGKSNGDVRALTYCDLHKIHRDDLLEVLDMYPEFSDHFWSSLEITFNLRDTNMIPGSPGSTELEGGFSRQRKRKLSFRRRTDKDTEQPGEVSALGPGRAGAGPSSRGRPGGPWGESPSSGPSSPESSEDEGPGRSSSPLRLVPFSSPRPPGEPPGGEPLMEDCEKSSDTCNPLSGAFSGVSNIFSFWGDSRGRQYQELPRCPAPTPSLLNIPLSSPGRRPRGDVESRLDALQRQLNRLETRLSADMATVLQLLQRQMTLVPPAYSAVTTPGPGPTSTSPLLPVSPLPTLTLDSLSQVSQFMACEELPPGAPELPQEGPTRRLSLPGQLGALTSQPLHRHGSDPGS

`COc1cc(N)c(Cl)cc1C(=O)NC1CCN(CCCOc2ccc(F)cc2)CC1OC` (stereo not shown) [Cisapride, reference compound]: on hERG potassium channel [1] (human, CHO cells stably expressing hERG), the inhibition (as a rule, the percentage by which the read-out fell short of the control) at 1 µM came out at 97.9 ± 0.5%.

As for `CC(C)CNC(=O)/C=C/C=C/CCC/C=C/Cc1ccccc1` [Compound 1b, N-Isobutyl-11-phenylundeca-2E,4E,9E-trienamide], the melting point (usually the temperature, or range, at which the solid turns liquid) lay within 80 to 82 °C. For the same compound, in data set [2], the inhibition in vivo at 10 mg/kg came to 39%.

On to `COc1ccc(C/C=C/CCC/C=C/C=C/C(=O)NCC(C)C)cc1` [Compound 1c, N-Isobutyl-11-(4-methoxyphenyl)undeca-2E,4E,9E-trienamide], for which, in data set [2], the inhibition in vivo at 10 mg/kg is 5% and the “Antidepressant activity compared with laetispicine (in words)” value was “lost their antidepressant activities entirely”.

For the compound `COc1ccc(C/C=C/CCC/C=C/C=C/C(=O)NCC(C)C)cc1OC` [Compound 1d, N-Isobutyl-11-(3,4-dimethoxyphenyl)undeca-2E,4E,9E-trienamide], the melting point lay within 61 to 63 °C. Besides, in data set [2], the inhibition in vivo at 10 mg/kg was found to be 6% and the “Antidepressant activity compared with laetispicine (in words)” value is given as “lost their antidepressant activities entirely”.

For `COc1cc(C/C=C/CCC/C=C/C=C/C(=O)NCC(C)C)cc(OC)c1OC` [Compound 1e, N-Isobutyl-11-(3,4,5-trimethoxyphenyl)undeca-2E,4E,9E-trienamide], the melting point is 72 to 73 °C. Besides, in data set [2], the inhibition in vivo at 10 mg/kg is 27% and the “Antidepressant activity compared with laetispicine (in words)” value is on record as “less antidepressant activities than laetispicine”.

Turning to `CC(C)CNC(=O)/C=C/C=C/CCC/C=C/Cc1ccc2c(c1)CCO2` [Compound 1f, N-Isobutyl-11-(2,3-dihydrobenzofuran-5-yl)undeca-2E,4E,9E-trienamide], in data set [2], the inhibition in vivo at 10 mg/kg amounted to 5% and the “Antidepressant activity compared with laetispicine (in words)” value was “lost their antidepressant activities entirely”.

In turn, `CC(C)CNC(=O)/C=C/C=C/CCC/C=C/Cc1ccc2c(c1)OCCO2` [Compound 1g, N-Isobutyl-11-(2,3-dihydrobenzo [1, 4]dioxin-6-yl)undeca-2E,4E,9E-trienamide] gave a melting point of 69 to 72 °C. In data set [2], the inhibition in vivo at 10 mg/kg was determined as 29% and the “Antidepressant activity compared with laetispicine (in words)” value was “less antidepressant activities than laetispicine”.

In the case of `CC(C)CNC(=O)/C=C/C=C/CCC/C=C/Cc1ccc(Cl)cc1` [Compound 1h, N-Isobutyl-11-(4-chlorophenyl)undeca-2E,4E,9E-trienamide], in data set [2], the inhibition in vivo at 10 mg/kg worked out at 52% and the “Antidepressant activity compared with laetispicine (in words)” value was “better antidepressant activities than that of laetispicine”. Also, on hERG potassium channel [3], testing at 1 µM gave an inhibition of 8 ± 2.3%, testing at 10 µM gave an inhibition of 13.9 ± 2% and the inhibition at 100 µM is 24.2 ± 4.9%. Further, on hERG potassium channel [1], the half-inhibitory concentration (IC50) (commonly the concentration that inhibits the measured activity by half) is above 100 µM.

In the case of `CC(C)CNC(=O)/C=C/C=C/CCC/C=C/Cc1ccc(F)cc1` [Compound 1i, N-isobutyl-11-(4-fluorophenyl)undeca-2E,4E,9E-trienamide], the melting point was 75 to 77 °C. Also, in data set [2], the inhibition in vivo at 10 mg/kg turned out to be 43% and the “Antidepressant activity compared with laetispicine (in words)” value was “better antidepressant activities than that of laetispicine”. Moreover, at hERG potassium channel [3], the inhibition at 1 µM was 7.1 ± 0.7%, the inhibition at 10 µM is 10.7 ± 0.1% and 100 µM produced 17.7 ± 1.5% inhibition. Moreover, the IC50 against hERG potassium channel [1] was above 100 µM.

`CNCCC(Oc1ccc(C(F)(F)F)cc1)c1ccccc1` (stereo not shown) [Fluoxetine, fluoxetine, reference compound]: in data set [2], the inhibition in vivo at 10 mg/kg is 0%.

Take `CC(C)CNC(=O)/C=C/C=C/CCC/C=C/Cc1ccc2c(c1)OCO2` [Laetispicine (1a), Laetispicine]: the inhibition in vivo at 10 mg/kg in data set [2] was determined as 33%.
